The values below come from patent US20020183277A1, “Combination of vitamin D analogue and pyrimidine nucleoside analogue” (priority 2001, published 2002).

Test [1] relates to thymidine phosphorylase activity in FHC cells. Description: thymidine phosphorylase activity in FHC cells. The format is cell-based, human. The following applies: continuous exposure, period of 11 days, control 0.25±0.04 nmol/min/mg. The procedure:
(§1) The thymidine phosphorylase activity was determined by measuring the conversion of radiolabelled thymidine to thymine. The assay method used was a slight modification of the method described in T. Sumizawa et al., “Thymidine Phosphorylase Activity Associated with Platelet-Derived Endothelial Cell Growth Factor”, J. Biochem. 114, 1993, pp. 9-14, which is hereby incorporated by reference.
(§2) The effect of administration of 1α, 25-dihydroxyvitamin D3 or seocalcitol (EB 1089) on growth of FHC cells was investigated. FHC cells are normal human colon epithelial cells (ATCC CRL-1831) considered to be a good model of normal human colon epithelium. The cells were grown in a culture medium supplemented with 10^−7 M 1α,25-dihydroxyvitamin D3 or seocalcitol for 14 days.
Similarly, cytidine deaminase and thymidine phosphorylase activity in FHC cells following continuous exposure to 1α,25-dihydroxyvitamin D3 or seocalcitol was determined as described in example 1. The cytidine deaminase and thymidine phosphorylase activity in control cells remained constant at 0.07±0.03 and 0.25±0.04 nmol/min/mg, respectively, over a period of 11 days and was unaffected by the presence of 1α,25-dihydroxyvitamin D3 or seocalcitol.

In test [2] the test system is cytidine deaminase in HL60 cells. Conditions: human promyeolytic cell line HL60; cited from earlier work.
Test [3] concerns cytidine deaminase activity in FHC cells. Description: cytidine deaminase activity in FHC cells. Type of test: cell-based, human. Conditions: continuous exposure, period of 11 days, control 0.07±0.03 nmol/min/mg. As to the method: (§3) The cytidine deaminase activity in the cell extracts was determined by measuring the conversion of radiolabelled cytidine to […] and uracil. The assay is a combination of the methods described in J. Mejer and P. Nygaard, “Cytosine Arabinoside Phosphorylation and Deamination in Acute Myeloblastic Leukemia Cells”, Leukemia Research 2, 1978 pp. 127-131, and B. R. De Saint Vincent et al., “The Modulation of Thymidine Triphosphate Pool of Chinese Hamster Cells by dCMP Deaminase and UDP Reductase”, J. Biol. Chem. 255, 1980, pp. 162-167, which are hereby incorporated by reference.
as §2
Similarly, cytidine deaminase and thymidine phosphorylase activity in FHC cells following continuous exposure to 1α,25-dihydroxyvitamin D3 or seocalcitol was determined as described in example 1. […]

In the next test the test system is cytidine deaminase gene. The following applies: HL60, WiDr, Colo 201, Colo 205, CXF 280, DLD-1, MKN 45, MKN 1, MKN 28 and A549 cells; cited from earlier work.
For test [4], the system named is cytidine deaminase (CDA) activity in HT-29 cells. Description: cytidine deaminase activity in extracts of treated HT-29 cells. Type of test: cell-based, human. The following applies: 10^-7 M; for increase in cytidine deaminase activity: incubation at day 1 for 24 hours, versus isopropanol control. The procedure: (§4) HT-29 cells (a human colon cancer cell line) were grown in medium to which was added 0.0025% isopropanol as control, 10^−7 M 1α, 25-dihydroxyvitamin D3 or 10^−7 M seocalcitol, respectively. The medium was changed on days 1, 4, 6, 8, 11 and 13, each time with addition of isopropanol, 1α, 25-dihydroxyvitamin D3 or seocalcitol, as appropriate.
(§5) On each of the indicated days, cells from each culture were harvested, pelleted and frozen. For the cytidine deaminase and thymidine phosphorylase assays, the frozen cell pellet was thawed and resuspended in 150 μl of 0.1 M Tris-Hcl, pH 8.1. The cell suspension was sonicated for 2-5 seconds and centrifuged at 20000×g for 20 minutes at 4° C. 100 μl of cell extract was transferred to Eppendorf tubes containing 0.5 μl 1M DTT.
as §3
The assay mixture has a total volume of 50 μl and the following composition:
2 μl ^3H-cytidine (18.2 Ci/mmol, 1 mCi/ml)
The substrate and products were separated on PEI-cellulose plates placed in about 1.5 cm of a mixture of isopropanol:water:ethyl acetate 41:22:117.

Another test has as its system FHC cells. Description: growth of FHC cells. The format is cell-based. The following applies: normal human colon epithelial cells, 10^-7 M, 14 days. As to the method: as §2
For test [5], the system named is thymidine phosphorylase (TP) activity in HT-29 cells. Description: thymidine phosphorylase activity in extracts of treated HT-29 cells. Conditions: 10^-7 M; for thymidine phosphorylase activity: at day 11 (control 0.395±0.062); for thymidine phosphorylase activity compared to isopropanol-treated cells: first 5 days. Type of test: cell-based, human. As to the method:
as §4, §5, §1
10 μl 50 mM sodium phosphate, pH 7.0
10 μl mM Tris-HCl, pH 7.6
2 μl ^3H-thymidine (5 Ci/mmol, 1 mCi/ml)
The substrate and product were separated on PEI-cellulose plates placed in about 1.5 cm of water.

The subject of another test is solid tumours. Conditions: clinical efficacy, limited by dose-limiting toxicity; cited from earlier work.
Test [6] relates to estrogen receptor-negative MDA-MB-231 tumours. The following applies: in combination with doxifluridine, MDA-MB-231 tumours in athymic mice; cited from earlier work.
In test [7] the test system is cell growth and enzymatic activity. In words: 2 hours versus continuous exposure (previous experiment). Type of test: cell-based. Conditions: 10^-7 M.
[8] abbreviates: after 8 days of incubation, p<0.0001.

For `C=C1/C(=C\C=C2/CCC[C@]3(C)[C@@H]([C@H](C)CCCC(C)(C)O)CC[C@@H]23)C[C@@H](O)C[C@@H]1O` [1α,25-dihydroxyvitamin D3], the “thymidine phosphorylase activity in FHC cells” value in test [1] is recorded as “unaffected”. Also, in test [2], the “cytidine deaminase in HL60 cells” value is reported as “causes an increase”. Moreover, in test [3], the “cytidine deaminase activity in FHC cells” value is listed as “unaffected”. Moreover, the “expression of the cytidine deaminase gene” value with cytidine deaminase gene is on record as “upregulates”. In addition, the “maximum increase in cytidine deaminase activity” value in [4] (setting [8]) is listed as 15.5 fold. The “increase in cytidine deaminase activity” value in test [4] is given as 4.5 fold. Also, the “growth of FHC cells compared to untreated control cells” value in the test on FHC cells is recorded as “not significantly affected”. In addition, in test [5], the thymidine phosphorylase activity was determined as 0.323 nmol/min/mg and the “thymidine phosphorylase activity compared to isopropanol-treated cells” value is on record as “the same as in isopropanol-treated cells”.

Turning to `O=c1[nH]cc(F)c(=O)[nH]1` [5-FU, 5-fluorouracil], the overall response rate in the test with solid tumours was 10-30%.

As for `C=C1/C(=C\C=C2/CCC[C@]3(C)[C@@H]([C@H](C)OCCC(C)(C)O)CC[C@@H]23)C[C@@H](O)C[C@@H]1O` [22-oxacalcitriol], the “effect of combination treatment versus 22-oxacalcitriol alone” value in test [6] was “did not exceed that of treatment with 22-oxacalcitriol alone”.

`C=C1/C(=C\C=C2/CCC[C@]3(C)[C@@H]([C@H](C)/C=C/C=C/C(O)(CC)CC)CC[C@@H]23)C[C@@H](O)C[C@@H]1O` [seocalcitol]: the “thymidine phosphorylase activity in FHC cells” value in [1] was “unaffected”. In addition, in test [3], the “cytidine deaminase activity in FHC cells” value is on record as “unaffected”. In test [7], the “effect on cell growth and enzymatic activity of 2 hours of exposure versus continuous exposure” value is reported as “equivalent effect”. Moreover, the “increase in cytidine deaminase activity relative to that observed for 1α,25-dihydroxyvitamin D3” value in test [4] (setting [8]) is reported as “twice”. In addition, the “increase in cytidine deaminase activity” value in test [4] came out at 4.9 fold. For the same compound, the “growth of FHC cells compared to untreated control cells” value in the test with FHC cells is reported as “not significantly affected”. Further, in test [5], the thymidine phosphorylase activity came out at 0.672 nmol/min/mg and the “thymidine phosphorylase activity compared to isopropanol-treated cells” value is recorded as “the same as in isopropanol-treated cells”.
